Experimental data from patent publication US11844806B2 (Asamedic AS, priority 2017, dated 2023).

How the values were obtained:
[1] = Dissolution of ASA on mixing with phosphate salt solution or water, shaken in the two component device; type: physicochemical
Experimental: (§1) The cap comprising the powder compartment and the cutting element was assembled with the container comprising the solution.
(§2) The cap was then turned down until the seal keeping the powder and the solution separately was broken by the cutting element. […] The device was then shaken until all ASA was dissolved.
(§3) The solution was then shaken until all ASA was dissolved. A light-yellow coloring of the solution was observed.
(§4) After releasing the ASA and sodium carbonate into the water, the solution was shaken until all ASA was dissolved.

[2] = pH of the solution after dissolution of ASA; type: physicochemical; conditions: for Measured pH of the solutions after dissolution of ASA: 300 mg ASA
Experimental: as §1, §2
Further aqueous solutions of salts of phosphoric acid were prepared. These phosphoric acid salt solutions were prepared in order to test the dissolution time of ASA at different final pH values i.e. the pH in the final ASA solution that are to be taken by the patient. Thus, the amount (mg) of the salt of phosphoric acid to be used was calculated based on the final pH to be obtained (theoretically pH).
as §3, §4

SMILES: CC(=O)Oc1ccccc1C(=O)O [ASA, acetylsalicylic acid]
- Time before ASA was dissolved ([1]; 300 mg ASA and 258-263 mg Na2CO3 released together into 15 ml pure water, test device, Example 7 (carbonate comparison)): approx. 120 sec.
- Time in which ASA is dissolved in the Na2HPO4 solutions ([1]; 300 mg ASA, 15 ml, pH in the final solution set between approximately 7 to 8 (summary of table 2)): ≤ 25 s
- Time in which ASA is dissolved in the Na3PO4.12H2O solution ([1]; 300 mg ASA, 15 ml, pH in the final solution set to approximately 7 (summary of table 3)): ≤ 25 s
- Time until all ASA was dissolved ([1]; 300 mg crushed ASA and 1000 mg crushed Na2HPO4 released together into 15 ml pure water, test device, Example 3): ≤ 30 s
- Time until all ASA was dissolved ([1]; 304 mg ASA and 610 mg Na3PO4 released at the same time into 15 ml pure water, Example 5): ≤ 30 s
- 300 mg ASA in 15 ml solution dissolved within 25 seconds ([1]; 422 mg (1.11 · 10^−3 mol) Na3PO4•12H2O in 15 ml, theoretical pH 7.2): yes
- 300 mg ASA in 15 ml solution dissolved within 25 seconds ([1]; 474 mg (3.34 · 10^−3 mol) Na2HPO4 in 15 ml, theoretical pH 7.2): Yes
- 300 mg ASA in 15 ml solution dissolved within 25 seconds ([1]; 950 mg (6.67 · 10^−3 mol) Na2HPO4 in 15 ml, theoretical pH 7.7): Yes
- 300 mg ASA in 15 ml solution dissolved within 25 seconds ([1]; 1730 mg (1.21 · 10^−2 mol) Na2HPO4 in 15 ml, theoretical pH 8.0): Yes
- pH of the solutions after dissolution of ASA and the carbonate salt ([2]; 300 mg ASA and 258-263 mg Na2CO3 in 15 ml pure water, Example 7): 9.41-9.43
- Measured pH of the solutions after dissolution of ASA ([2]; 422 mg Na3PO4•12H2O in 15 ml, theoretical pH 7.2): 7.6
- Measured pH of the solutions after dissolution of ASA ([2]; 474 mg Na2HPO4 in 15 ml, theoretical pH 7.2): 7.0
- Measured pH of the solutions after dissolution of ASA ([2]; 1730 mg Na2HPO4 in 15 ml, theoretical pH 8.0): 7.7
- pH of the solution after dissolution of ASA and the hydrogen phosphate salt ([2]; 300 mg crushed ASA and 1000 mg crushed Na2HPO4 in 15 ml pure water, Example 3): 7
- pH of the solution after dissolution of ASA and the phosphate salt ([2]; 304 mg ASA and 610 mg Na3PO4 in 15 ml pure water, Example 5): 10.72
